Measurements reported in PMC7031696 (Cell chemical biology, 2019).
pIC50: −log10 of the molar value. Like-named read-outs stand apart in the source and are kept apart here.

Tests used:
[1] = test system: Plasmodium falciparum 3D7-A10 parasites; assay: Stage specificity assay (8-h exposure of synchronized stages, IC50^8h); format: cell-based; details: for pIC50: Plasmodium falciparum
[2] = test system: asynchronous 3D7-A10 parasite cultures; assay: Standard 72-h exposure asexual blood stage susceptibility assay (IC50^72h); format: cell-based, Plasmodium falciparum; details: Plasmodium falciparum, 3D7, 72 h, read-out: Overall (72hr assay) Mean IC50 (IC50^72h)
[3] = test system: 3D7-MR4 trophozoite parasite-infected RBCs; assay: Metabolomic profiling (hydrophilic metabolite changes, UHPLC-MS); format: cell-based, Plasmodium falciparum

CN(C(=O)c1cn2c(-c3ccc(C(F)(F)F)cc3)cnc2cn1)c1ccc(C#N)cc1 [KAI407, reference compound]
Ratio lowest IC50 8hr/IC50 72hr ([1]; 3D7-A10): 3.9 | overall activity profile (stages on which active) ([1]; 8-h exposures): activity against only schizonts | pIC50 ([1]; 3D7, read-out: Early rings Mean IC50, shift 2, 8-h exposure 0–8 hr, line 'shift 2'): 4.79 | pIC50 ([1]; 3D7, read-out: Early trophozoites Mean IC50, shift 2, 8-h exposure 16–24 hr, line 'shift 2' of biphasic dose response): 5.29 | pIC50 ([1]; 3D7, read-out: Late rings Mean IC50, shift 2, 8-h exposure 8–16 hr, line 'shift 2'): 4.85 | pIC50 ([1]; 3D7, read-out: Late trophozoites Mean IC50, shift 1, 8-h exposure 24–32 hr, line 'shift 1' of biphasic dose response): 6.79 | pIC50 ([1]; 3D7, read-out: Late trophozoites Mean IC50, shift 2, 8-h exposure 24–32 hr, line 'shift 2' of biphasic dose response): 4.87 | pIC50 ([1]; 3D7, read-out: Schizonts Mean IC50, shift 2, 8-h exposure 32–40 hr, line 'shift 2'): 7.34 | Stage of peak activity (Figure 6) ([1]; period when the parasite was most susceptible (lowest IC50^8h)): schizonts | pIC50 [2]: 7.93 | Log2(fold changes) 3-phosphoglycerate ([3]; metabolite 3-phosphoglycerate, log2 fold change): -0.5235 | Log2(fold changes) 4-Pyridoxic acid ([3]; metabolite 4-Pyridoxic acid, log2 fold change): 0.0000 | Log2(fold changes) 4-aminobutyrate ([3]; metabolite 4-aminobutyrate, log2 fold change): -0.0697 | Log2(fold changes) 4-phosphopantetheine ([3]; metabolite 4-phosphopantetheine, log2 fold change): -0.3259 | Log2(fold changes) 4-phosphopantothenate ([3]; metabolite 4-phosphopantothenate, log2 fold change): -0.0998 | Log2(fold changes) 5-aminopentanoic acid ([3]; metabolite 5-aminopentanoic acid, log2 fold change): 0.0000 | Log2(fold changes) 5-methyl-THF ([3]; metabolite 5-methyl-THF, log2 fold change): 0.0000 | Log2(fold changes) 5-phosphoribosyl-1-pyrophosphate ([3]; metabolite 5-phosphoribosyl-1-pyrophosphate, log2 fold change): 0.0000 | Log2(fold changes) 6-phospho-D-gluconate ([3]; metabolite 6-phospho-D-gluconate, log2 fold change): -0.0493 | Log2(fold change) HVDD ([3]; metabolite HVDD): 0.0000 | Log2(fold change) Hydroxyisocaproic acid ([3]; metabolite Hydroxyisocaproic acid): 0.0000 | Log2(fold change) IDP ([3]; metabolite IDP): -0.1372 | Log2(fold change) IMP ([3]; metabolite IMP): 0.0398 | Log2(fold change) Inositol ([3]; metabolite Inositol): 0.0000 | Log2(fold change) Isopentyl-PP ([3]; metabolite Isopentyl-PP): 0.0000 | Log2(fold change) L-arginino-succinate ([3]; metabolite L-arginino-succinate): 0.0109 | Log2(fold change) LD ([3]; metabolite LD): 0.0079 | Log2(fold change) Myristoyl/tetradecanoyl-CoA ([3]; metabolite Myristoyl/tetradecanoyl-CoA): 0.0000 | Log2(fold change) N-Acetyl-L-alanine ([3]; metabolite N-Acetyl-L-alanine): 0.0065 | Log2(fold change) N-acetyl-L-ornithine ([3]; metabolite N-acetyl-L-ornithine): -0.3674 | Log2(fold change) N-acetyl-glucosamine-1/6-phosphate ([3]; metabolite N-acetyl-glucosamine-1/6-phosphate): -0.2974 | Log2(fold change) N-acetyl-glutamate ([3]; metabolite N-acetyl-glutamate): -0.1156 | Log2(fold change) N-acetyl-glutamine ([3]; metabolite N-acetyl-glutamine): -0.4039 | Log2(fold change) N-carbamoyl-L-aspartate ([3]; metabolite N-carbamoyl-L-aspartate): -0.0890 | Log2(fold change) NAD+ ([3]; metabolite NAD+): -0.0062 | Log2(fold change) NADH ([3]; metabolite NADH): 0.3557 | Log2(fold change) NADP+ ([3]; metabolite NADP+): 0.1126 | Log2(fold change) NADPH ([3]; metabolite NADPH): 0.1591 | Log2(fold change) O-acetyl-L-serine ([3]; metabolite O-acetyl-L-serine): 0.0000 | Log2(fold change) Octoluse 8/1P ([3]; metabolite Octoluse 8/1P): -0.0134 | Log2(fold change) Octoluse Bisphosphate ([3]; metabolite Octoluse Bisphosphate): -0.3290 | Log2(fold change) PD ([3]; metabolite PD): -0.6855 | Log2(fold change) PE ([3]; metabolite PE): -0.6905 | Log2(fold change) PEE ([3]; metabolite PEE): -0.7885 | Log2(fold change) PEEK ([3]; metabolite PEEK): -0.8519 | Log2(fold change) PVNF ([3]; metabolite PVNF): -0.9231 | Log2(fold change) Pyroglutamic acid ([3]; metabolite Pyroglutamic acid): -0.1373 | Log2(fold change) Pyrophosphate ([3]; metabolite Pyrophosphate): 0.0000 | Log2(fold change) Ribose-5-phosphate ([3]; metabolite Ribose-5-phosphate): -0.3312 | Log2(fold change) S-adenosyl-L-homocysteine ([3]; metabolite S-adenosyl-L-homocysteine): -0.0194 | Log2(fold change) S-adenosyl-L-methioninamine ([3]; metabolite S-adenosyl-L-methioninamine): 0.0000 | Log2(fold change) S-adenosyl-L-methionine ([3]; metabolite S-adenosyl-L-methionine): 0.0000 | Log2(fold change) S-methyl-5'-thioadenosine ([3]; metabolite S-methyl-5'-thioadenosine): 0.0000 | Log2(fold change) SD ([3]; metabolite SD): -0.4923 | Log2(fold change) SDL ([3]; metabolite SDL): 0.0000 | Log2(fold change) SID ([3]; metabolite SID): 0.0000 | Log2(fold change) Sedoheptulose bisphosphate ([3]; metabolite Sedoheptulose bisphosphate): -0.3584 | Log2(fold change) Thiamine pyrophosphate ([3]; metabolite Thiamine pyrophosphate): 0.0000 | Log2(fold changes) UDP-D-glucose ([3]; metabolite UDP-D-glucose, log2 fold change): 0.1494 | Log2(fold changes) UDP-D-glucuronate ([3]; metabolite UDP-D-glucuronate, log2 fold change): 0.0070 | Log2(fold changes) UDP-N-acetyl-glucosamine ([3]; metabolite UDP-N-acetyl-glucosamine, log2 fold change): 0.1156 | Log2(fold changes) UDP ([3]; metabolite UDP, log2 fold change): 0.2283 | Log2(fold changes) UMP ([3]; metabolite UMP, log2 fold change): 0.2317 | Log2(fold changes) UTP ([3]; metabolite UTP, log2 fold change): 0.2213 | Log2(fold change) hydroxyphenylpyruvate ([3]; metabolite hydroxyphenylpyruvate): 0.0000 | Log2(fold change) hydroxyproline/Aminolevulinate ([3]; metabolite hydroxyproline/Aminolevulinate): -0.0075 | Log2(fold change) hypoxanthine ([3]; metabolite hypoxanthine): 0.1648 | Log2(fold change) indole ([3]; metabolite indole): 0.3490 | Log2(fold change) inosine ([3]; metabolite inosine): -0.0766 | Log2(fold change) isoleucine ([3]; metabolite isoleucine): 0.0000 | Log2(fold change) lactate ([3]; metabolite lactate): -0.2025 | Log2(fold change) leucine ([3]; metabolite leucine): 0.0000 | Log2(fold change) lysine ([3]; metabolite lysine): -0.5734 | Log2(fold change) malate ([3]; metabolite malate): -0.3950 | Log2(fold change) maleic acid ([3]; metabolite maleic acid): -0.3624 | Log2(fold change) methionine ([3]; metabolite methionine): 0.0256 | Log2(fold change) myo-inositol ([3]; metabolite myo-inositol): -0.1977 | Log2(fold change) nicotinamide mononucleotide ([3]; metabolite nicotinamide mononucleotide): 0.0000 | Log2(fold change) nicotinate ([3]; metabolite nicotinate): -0.1013 | Log2(fold change) ornithine ([3]; metabolite ornithine): -0.1781 | Log2(fold change) orotate ([3]; metabolite orotate): 0.2133 | Log2(fold change) orotidine-5'-phosphate ([3]; metabolite orotidine-5'-phosphate): 0.1629 | Log2(fold change) oxaloacetate ([3]; metabolite oxaloacetate): 0.0000 | Log2(fold change) p-aminobenzoate ([3]; metabolite p-aminobenzoate): -0.0216 | Log2(fold change) p-hydroxybenzoate ([3]; metabolite p-hydroxybenzoate): 0.3646 | Log2(fold change) pantothenate ([3]; metabolite pantothenate): -0.2828 | Log2(fold change) phenylalanine ([3]; metabolite phenylalanine): -0.1837 | Log2(fold change) phenylpyruvate ([3]; metabolite phenylpyruvate): 0.0000 | Log2(fold change) phosphoenolpyruvate ([3]; metabolite phosphoenolpyruvate): -0.3146 | Log2(fold change) prephenate ([3]; metabolite prephenate): -0.3616 | Log2(fold change) proline ([3]; metabolite proline): -0.1191 | Log2(fold change) pyridoxine ([3]; metabolite pyridoxine): -0.0925 | Log2(fold change) pyruvate ([3]; metabolite pyruvate): -0.4635 | Log2(fold change) riboflavin ([3]; metabolite riboflavin): 0.1454 | Log2(fold change) ribose ([3]; metabolite ribose): 0.2742 | Log2(fold change) ribose-phosphate ([3]; metabolite ribose-phosphate): 0.0000 | Log2(fold change) ribulose-5-phosphate ([3]; metabolite ribulose-5-phosphate): 0.0000 | Log2(fold change) serine ([3]; metabolite serine): 0.1757 | Log2(fold change) sn-glycerol-3-phosphate ([3]; metabolite sn-glycerol-3-phosphate): -0.3504 | Log2(fold change) succinate/Methylmalonic acid ([3]; metabolite succinate/Methylmalonic acid): -0.0586 | Log2(fold change) succinyl-CoA/methylmalonyl-CoA ([3]; metabolite succinyl-CoA/methylmalonyl-CoA): 0.0000 | Log2(fold change) taurine ([3]; metabolite taurine): 0.0000 | Log2(fold change) thiamine ([3]; metabolite thiamine): -0.0019 | Log2(fold change) threonine/homoserine ([3]; metabolite threonine/homoserine): -0.0036 | Log2(fold change) thymidine ([3]; metabolite thymidine): 0.0000 | Log2(fold changes) thymine ([3]; metabolite thymine, log2 fold change): 0.0000 | Log2(fold changes) trehalose-6-Phosphate ([3]; metabolite trehalose-6-Phosphate, log2 fold change): 0.0000 | Log2(fold changes) tryptophan ([3]; metabolite tryptophan, log2 fold change): -0.0140 | Log2(fold changes) tyrosine ([3]; metabolite tyrosine, log2 fold change): 0.0814 | Log2(fold changes) uridine ([3]; metabolite uridine, log2 fold change): 0.2403
